Laboratory results taken from patent US12077503B2, “Substituted cyclic amides and their use as herbicides” (FMC CORPORATION, priority 2015, dated 2024).

Legend:
Assay type in all cases: in vivo
corn (Zea mays) [1] = assay: Test G Post-Emergence Protocol; conditions: Zea mays, post-emergence, 312 h; for plant injury at 15.625 g/ha: 15.625 g ai/ha, evaluated after 13 days (100=total damage to plant; 0=no damage to plant), read-out: Corn damage rating; for plant injury at 62.5 g/ha: 62.5 g ai/ha, read-out: Corn damage rating (100=total damage to plant; 0=no damage to plant); for plant injury at 62.5 g/ha / plant injury at 250 g/ha: evaluated after 13 days; for plant injury at 250 g/ha: 250 g ai/ha, read-out: damage to plant, Corn (100=total damage to plant; 0=no damage to plant)
Method in brief: (§1)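 Scores run 0 (no damage) to 100 (total damage) and were taken 13 days after spraying. Plants had been raised in pots for 8 days under glasshouse control (24/16 °C, 14 h photoperiod, 65% humidity) and then treated at 15.625, 62.5 or 250 g/ha.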

[2] = test system: ivy-leaved morning glory (Ipomoea hederacea); assay: Test G Post-Emergence Protocol; conditions: Ipomoea, post-emergence, 312 h; for pest or weed control at 15.625 g/ha: 15.625 g ai/ha, evaluated after 13 days (100=total damage to plant; 0=no damage to plant), read-out: Morningglory, Ivy-leaved damage rating; for pest or weed control at 62.5 g/ha: 62.5 g ai/ha, read-out: Morningglory, Ivy-leaved damage rating (100=total damage to plant; 0=no damage to plant); for pest or weed control at 62.5 g/ha / pest or weed control at 250 g/ha: evaluated after 13 days; for pest or weed control at 250 g/ha: 250 g ai/ha, read-out: damage to plant, Morningglory, Ivy-leaved (100=total damage to plant; 0=no damage to plant)
Method in brief: as §1

[3] = test system: barnyardgrass (Echinochloa crus-galli); assay: Test G Post-Emergence Protocol; conditions: Echinochloa crus-galli, post-emergence, 312 h; for pest or weed control at 15.625 g/ha: 15.625 g ai/ha, evaluated after 13 days (100=total damage to plant; 0=no damage to plant), read-out: Barnyardgrass damage rating; for pest or weed control at 62.5 g/ha: 62.5 g ai/ha, read-out: Barnyardgrass damage rating (100=total damage to plant; 0=no damage to plant); for pest or weed control at 62.5 g/ha / pest or weed control at 250 g/ha: evaluated after 13 days; for pest or weed control at 250 g/ha: 250 g ai/ha, read-out: damage to plant, Barnyardgrass (100=total damage to plant; 0=no damage to plant)
Method in brief: as §1

[4] = test system: redroot pigweed (Amaranthus retroflexus); assay: Test G Post-Emergence Protocol; conditions: Amaranthus retroflexus, post-emergence, 312 h; for pest or weed control at 15.625 g/ha: 15.625 g ai/ha, evaluated after 13 days (100=total damage to plant; 0=no damage to plant), read-out: Pigweed, Redroot damage rating; for pest or weed control at 62.5 g/ha: 62.5 g ai/ha, read-out: Pigweed, Redroot damage rating (100=total damage to plant; 0=no damage to plant); for pest or weed control at 62.5 g/ha / pest or weed control at 250 g/ha: evaluated after 13 days; for pest or weed control at 250 g/ha: 250 g ai/ha, read-out: damage to plant, Pigweed, Redroot (100=total damage to plant; 0=no damage to plant)
Method in brief: as §1

[5] = test system: giant foxtail (Setaria faberi); assay: Test G Post-Emergence Protocol; conditions: Setaria faberi, post-emergence, 312 h; for pest or weed control at 15.625 g/ha: 15.625 g ai/ha, evaluated after 13 days (100=total damage to plant; 0=no damage to plant), read-out: Foxtail, Giant damage rating; for pest or weed control at 62.5 g/ha: 62.5 g ai/ha, read-out: Foxtail, Giant damage rating (100=total damage to plant; 0=no damage to plant); for pest or weed control at 62.5 g/ha / pest or weed control at 250 g/ha: evaluated after 13 days; for pest or weed control at 250 g/ha: 250 g ai/ha, read-out: damage to plant, Foxtail, Giant (100=total damage to plant; 0=no damage to plant)
Method in brief: as §1

[6] = test system: velvetleaf (Abutilon theophrasti); assay: Test G Post-Emergence Protocol; conditions: Abutilon theophrasti, post-emergence, 312 h; for pest or weed control at 15.625 g/ha: 15.625 g ai/ha, evaluated after 13 days (100=total damage to plant; 0=no damage to plant), read-out: Velvetleaf damage rating; for pest or weed control at 62.5 g/ha: 62.5 g ai/ha, read-out: Velvetleaf damage rating (100=total damage to plant; 0=no damage to plant); for pest or weed control at 62.5 g/ha / pest or weed control at 250 g/ha: evaluated after 13 days; for pest or weed control at 250 g/ha: 250 g ai/ha, read-out: damage to plant, Velvetleaf (100=total damage to plant; 0=no damage to plant)
Method in brief: as §1

corn (Zea mays) [7] = assay: Test G Pre-Emergence Protocol; conditions: Zea mays, pre-emergence, 312 h, evaluated after 13 days; for plant injury at 15.625 g/ha: 15.625 g ai/ha; for plant injury at 15.625 g/ha / plant injury at 250 g/ha: read-out: Corn damage rating (100=total damage to plant; 0=no damage to plant); for plant injury at 62.5 g/ha: 62.5 g ai/ha, 100=total damage to plant, 0=no damage to plant, read-out: plant damage rating, Corn; for plant injury at 250 g/ha: 250 g ai/ha
Method in brief: (§2)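 One day after sowing, pots are treated with a spray of test compound formulated in acetone/water 50:50 plus 0.5% Tween 20, giving 15.625, 62.5 or 250 g/ha. Evaluation on a 0–100 damage scale follows 13 days of glasshouse growth.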

[8] = test system: ivy-leaved morning glory (Ipomoea hederacea); assay: Test G Pre-Emergence Protocol; conditions: Ipomoea, pre-emergence, 312 h, evaluated after 13 days; for pest or weed control at 15.625 g/ha: 15.625 g ai/ha, read-out: Morning-glory, Ivy-leaved damage rating (100=total damage to plant; 0=no damage to plant); for pest or weed control at 62.5 g/ha: 62.5 g ai/ha, 100=total damage to plant, 0=no damage to plant, read-out: plant damage rating, Morningglory, Ivy-leaved; for pest or weed control at 250 g/ha: 250 g ai/ha, read-out: Morningglory, Ivy-leaved damage rating (100=total damage to plant; 0=no damage to plant)
Method in brief: as §2

[9] = test system: barnyardgrass (Echinochloa crus-galli); assay: Test G Pre-Emergence Protocol; conditions: Echinochloa crus-galli, pre-emergence, 312 h, evaluated after 13 days; for pest or weed control at 15.625 g/ha: 15.625 g ai/ha, read-out: Barnyard grass damage rating (100=total damage to plant; 0=no damage to plant); for pest or weed control at 62.5 g/ha: 62.5 g ai/ha, 100=total damage to plant, 0=no damage to plant, read-out: plant damage rating, Barnyardgrass; for pest or weed control at 250 g/ha: 250 g ai/ha, read-out: Barnyardgrass damage rating (100=total damage to plant; 0=no damage to plant)
Method in brief: as §2

[10] = test system: redroot pigweed (Amaranthus retroflexus); assay: Test G Pre-Emergence Protocol; conditions: Amaranthus retroflexus, pre-emergence, 312 h, evaluated after 13 days; for pest or weed control at 15.625 g/ha: 15.625 g ai/ha; for pest or weed control at 15.625 g/ha / pest or weed control at 250 g/ha: read-out: Pigweed, Redroot damage rating (100=total damage to plant; 0=no damage to plant); for pest or weed control at 62.5 g/ha: 62.5 g ai/ha, 100=total damage to plant, 0=no damage to plant, read-out: plant damage rating, Pigweed, Redroot; for pest or weed control at 250 g/ha: 250 g ai/ha
Method in brief: as §2

[11] = test system: giant foxtail (Setaria faberi); assay: Test G Pre-Emergence Protocol; conditions: Setaria faberi, pre-emergence, 312 h, evaluated after 13 days; for pest or weed control at 15.625 g/ha: 15.625 g ai/ha; for pest or weed control at 15.625 g/ha / pest or weed control at 250 g/ha: read-out: Foxtail, Giant damage rating (100=total damage to plant; 0=no damage to plant); for pest or weed control at 62.5 g/ha: 62.5 g ai/ha, 100=total damage to plant, 0=no damage to plant, read-out: plant damage rating, Foxtail, Giant; for pest or weed control at 250 g/ha: 250 g ai/ha
Method in brief: as §2

[12] = test system: velvetleaf (Abutilon theophrasti); assay: Test G Pre-Emergence Protocol; conditions: Abutilon theophrasti, pre-emergence, 312 h, evaluated after 13 days; for pest or weed control at 15.625 g/ha: 15.625 g ai/ha; for pest or weed control at 15.625 g/ha / pest or weed control at 250 g/ha: read-out: Velvetleaf damage rating (100=total damage to plant; 0=no damage to plant); for pest or weed control at 62.5 g/ha: 62.5 g ai/ha, 100=total damage to plant, 0=no damage to plant, read-out: plant damage rating, Velvetleaf; for pest or weed control at 250 g/ha: 250 g ai/ha
Method in brief: as §2

Compound | plant injury at 15.625 g/ha (corn (Zea mays) [1]) [%] | plant injury at 62.5 g/ha (corn (Zea mays) [1]) [%] | plant injury at 250 g/ha (corn (Zea mays) [1]) [%] | pest or weed control at 15.625 g/ha [2] [%] | pest or weed control at 62.5 g/ha [2] [%] | pest or weed control at 250 g/ha [2] [%] | pest or weed control at 15.625 g/ha [3] [%] | pest or weed control at 62.5 g/ha [3] [%] | pest or weed control at 250 g/ha [3] [%] | pest or weed control at 15.625 g/ha [4] [%] | pest or weed control at 62.5 g/ha [4] [%] | pest or weed control at 250 g/ha [4] [%] | pest or weed control at 15.625 g/ha [5] [%] | pest or weed control at 62.5 g/ha [5] [%] | pest or weed control at 250 g/ha [5] [%] | pest or weed control at 15.625 g/ha [6] [%] | pest or weed control at 62.5 g/ha [6] [%] | pest or weed control at 250 g/ha [6] [%] | plant injury at 15.625 g/ha (corn (Zea mays) [7]) [%] | plant injury at 62.5 g/ha (corn (Zea mays) [7]) [%] | also measured
Cc1cc(Cl)ncc1NC(=O)[C@@H]1C(=O)N(C)C[C@H]1c1ccc(C(F)(F)F)cc1 (racemic) [Compound 1578] | 0 | 0 | 10 | 0 | 10 | 30 | 0 | 20 | 20 | 0 | 20 | 30 | 0 | 10 | 60 | 20 | 10 | 20 | 0 | 0 | plant injury at 250 g/ha (corn (Zea mays) [7]): 10%; pest or weed control at 15.625 g/ha [8]: 0%; pest or weed control at 62.5 g/ha [8]: 0%; pest or weed control at 250 g/ha [8]: 0%; pest or weed control at 15.625 g/ha [9]: 0%; pest or weed control at 62.5 g/ha [9]: 0%; pest or weed control at 250 g/ha [9]: 0%; pest or weed control at 15.625 g/ha [10]: 0%; pest or weed control at 62.5 g/ha [10]: 0%; pest or weed control at 250 g/ha [10]: 20%; pest or weed control at 15.625 g/ha [11]: 0%; pest or weed control at 62.5 g/ha [11]: 0%; pest or weed control at 250 g/ha [11]: 60%; pest or weed control at 15.625 g/ha [12]: 0%; pest or weed control at 62.5 g/ha [12]: 0%; pest or weed control at 250 g/ha [12]: 10%
CN1C[C@H](c2cccc(C(F)F)c2)[C@@H](C(=O)Nc2cccc(F)c2F)C1=O (racemic) [Compound 1588] | 60 | 80 | 80 | 70 | 20 | 50 | 80 | 80 | 80 | 0 | 0 | 20 | 60 | 70 | 70 | 0 | 0 | 40 | 40 | 60 | plant injury at 250 g/ha (corn (Zea mays) [7]): 80%; pest or weed control at 15.625 g/ha [8]: 20%; pest or weed control at 62.5 g/ha [8]: 0%; pest or weed control at 250 g/ha [8]: 80%; pest or weed control at 15.625 g/ha [9]: 80%; pest or weed control at 62.5 g/ha [9]: 90%; pest or weed control at 250 g/ha [9]: 90%; pest or weed control at 15.625 g/ha [10]: 0%; pest or weed control at 62.5 g/ha [10]: 40%; pest or weed control at 250 g/ha [10]: 70%; pest or weed control at 15.625 g/ha [11]: 70%; pest or weed control at 62.5 g/ha [11]: 80%; pest or weed control at 250 g/ha [11]: 90%; pest or weed control at 15.625 g/ha [12]: 0%; pest or weed control at 62.5 g/ha [12]: 10%; pest or weed control at 250 g/ha [12]: 20%
COc1cc(NC(=O)[C@@H]2C(=O)N(C)C[C@H]2c2ccc(C(F)(F)F)cc2)ccn1 (racemic) [Compound 1589] | 0 | 0 | 0 | 0 | 0 | 0 | 0 | 0 | 0 | 0 | 0 | 0 | 0 | 0 | 0 | 0 | 0 | 0 | 0 | 0 | plant injury at 250 g/ha (corn (Zea mays) [7]): 0%; pest or weed control at 15.625 g/ha [8]: 0%; pest or weed control at 62.5 g/ha [8]: 0%; pest or weed control at 250 g/ha [8]: 0%; pest or weed control at 15.625 g/ha [9]: 0%; pest or weed control at 62.5 g/ha [9]: 0%; pest or weed control at 250 g/ha [9]: 0%; pest or weed control at 15.625 g/ha [10]: 0%; pest or weed control at 62.5 g/ha [10]: 0%; pest or weed control at 250 g/ha [10]: 0%; pest or weed control at 15.625 g/ha [11]: 0%; pest or weed control at 62.5 g/ha [11]: 0%; pest or weed control at 250 g/ha [11]: 0%; pest or weed control at 15.625 g/ha [12]: 0%; pest or weed control at 62.5 g/ha [12]: 0%; pest or weed control at 250 g/ha [12]: 0%
